Like-named read-outs stand apart in the source and are kept apart here.

Series [1] relates to lactoperoxidase (LPO). Also noted: method as in PMID 16248663. As to conditions: cited from earlier work.
Series [2] addresses lactoperoxidase (LPO). Also noted: method as in PMID 16855736. The conditions noted are these: cited from earlier work.
Details of series [3]: method as in earlier work. As to conditions: cited from earlier work.
Series [4] is described as follows: Glutathione peroxidase (GPx)-like reduction of H2O2 in the presence of thiols (GSH). As to conditions: catalytic reduction of H2O2 with thiols such as GSH. The format is biochemical. From the text:
Doerge and others have shown that mammalian peroxidases including LPO may activate the antithyroid drugs through S-oxygenation to produce the corresponding sulfoxides or sulfinic acids. They have also shown that the suicide inactivation of LPO and TPO by MMI proceeds through the S-oxygenation of the thione moiety to form a reactive sulfinic acid, which binds covalently to the prosthetic heme and irreversibly blocks enzyme activity. Given the higher reactivity of selenium compounds as compared with the sulfur derivatives toward oxidation, it is possible that the facile oxidation of the selenium compounds may lead to an efficient inhibition of LPO activity. […] The LPO activity was measured several times by increasing the time for the reaction of the test compounds with H2O2. Remarkably, MSeI (2) inhibited the enzyme within few seconds even at lower concentrations, which can be ascribed to the facile oxidation of the reactive selenolate group in 2 (MSeI) by H2O2 or by the oxidized enzyme. […] The initial rates (v0) derived from various concentrations of H2O2 were plotted against the concentration of H2O2. […] The reduction of H2O2 by 2 may become more efficient in the presence of suitable thiols such as GSH because this process may constitute a redox cycle involving a catalytic reduction of H2O2 (glutathione peroxidase (GPx) activity). […]

Details of series [5]: method as in PMID 14995183, PMID 16248663. As to conditions: oxidizes in air to the corresponding diselenide; cited from earlier work.

In the case of `Cn1cc[nH]c1=S` [MMI, methimazole], in the series with lactoperoxidase (LPO) [1] (10 μM compound, 230 μM H2O2), the “Recovery of LPO activity at lower compound and higher H2O2 concentration” value is recorded as “could not be recovered”. In the series on lactoperoxidase (LPO) [1] (40 μM compound, ABTS oxidation, Figure 3), the “LPO activity in the presence of compound” value was “completely inhibited”. In addition, the “Recovery of LPO activity by increasing H2O2 concentration” value in the series on lactoperoxidase (LPO) [1] (40 μM compound, initial rates vs H2O2 concentration, LPO 6.5 nM, Figure 3) is listed as “could not be recovered”. In addition, the IC50 on lactoperoxidase (LPO) [1] (LPO-catalyzed oxidation of ABTS with H2O2, concentration causing 50% inhibition, at least three independent experiments) was 7 ± 1.1 µM; on lactoperoxidase (LPO) [2] (HPLC assay, KI, L-tyrosine, H2O2, LPO, fixed H2O2 concentration, read-out: IC50, inhibition of LPO-catalyzed iodination of L-tyrosine), 5.2 µM. Further, the “hydrogen-bond (hard) basicity pk HB value” in series [3] is on record as 2.11.

As to `Cn1cc[nH]c1=[Se]` [MSeI], in series [4], the “GPx activity (in words)” value is recorded as “high”. The “Stability of the zwitterionic form in air” value in series [5] was “unstable”.

With `Cn1ccnc1[Se][Se]c1nccn1C` [compound 8], in the series with lactoperoxidase (LPO) [1] (identical experimental conditions as for the IC50 determination), the “Inhibition of LPO-catalyzed oxidation (in words)” value is “does not show any noticeable inhibition”. Further, in the series with lactoperoxidase (LPO) [2] (identical conditions as the IC50 determination), the “Inhibition of LPO-catalyzed iodination (in words)” value was “did not show any noticeable inhibition”.

In the case of `CCCc1cc(=O)[nH]c(=S)[nH]1` [PTU, 6-n-propyl-2-thiouracil], the “hydrogen-bond (hard) basicity pk HB value” in series [3] is on record as around 1.32.

For orientation: IC50 means the concentration that inhibits the measured activity by half.
